# Test results: ChEMBL document CHEMBL1201862, “PubChem BioAssay data set” (2004)
#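 Grown in 96-well plates, cells were treated for 48 hours with each compound at five concentrations. Insufficient inhibition: endpoint recorded as highest concentration tested. At the GI50, growth is halved.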 The source made the active and inactive calls. Cut-off read from the data, not from the text of the source: active = GI50 up to about 1.1 µM and inactive = higher.
# What was measured:
# Assay in all cases: inhibition of tumour cell growth, NCI panel, 48 h
# NCI/ADR-RES = system: NCI/ADR-RES
# NCI-H460 = system: NCI-H460
# MCF7 = system: MCF7
# SK-OV-3 = system: SK-OV-3
# OVCAR-3 = system: OVCAR-3
# MDA-MB-231 = system: MDA-MB-231
# COLO 205 = system: COLO 205
# HOP-92 = system: HOP-92
# RPMI-8226 = system: RPMI-8226
# HT-29 = system: HT-29
# DU-145 = system: DU-145
# SF-295 = system: SF-295
# K562 = system: K562
# ACHN = system: ACHN
# BT-549 = system: BT-549
# UACC-257 = system: UACC-257
# TK-10 = system: TK-10
# HCC 2998 = system: HCC 2998
# SF-268 = system: SF-268
# A549 = system: A549
# MDA-MB-435 = system: MDA-MB-435
# RXF 393 = system: RXF 393
# LOX IMVI = system: LOX IMVI
# PC-3 = system: PC-3
# SK-MEL-5 = system: SK-MEL-5
# NCI-H226 = system: NCI-H226
# OVCAR-5 = system: OVCAR-5
# HL-60 = system: HL-60
# EKVX = system: EKVX
# 786-0 = system: 786-0
# MOLT-4 = system: MOLT-4
# SNB-19 = system: SNB-19
# CCRF-CEM = system: CCRF-CEM
# NCI-H23 = system: NCI-H23
# KM12 = system: KM12
# OVCAR-8 = system: OVCAR-8
# HCT-15 = system: HCT-15
# M14 = system: M14
# HCT-116 = system: HCT-116
# UACC-62 = system: UACC-62
# A498 = system: A498
# SNB-75 = system: SNB-75
# SK-MEL-28 = system: SK-MEL-28
# T47D = system: T47D
# NCI-H522 = system: NCI-H522
# SR = system: SR
# OVCAR-4 = system: OVCAR-4
# U-251 = system: U-251
# CAKI-1 = system: CAKI-1
# SN12C = system: SN12C
# SK-MEL-2 = system: SK-MEL-2
# HOP-62 = system: HOP-62
# MDA-N = system: MDA-N
# IGROV-1 = system: IGROV-1
# Hs-578T = system: Hs-578T
# SW-620 = system: SW-620
# UO-31 = system: UO-31
# Malme-3M = system: Malme-3M
# SF-539 = system: SF-539
structure (smiles),measurement,setting,value
Cn1c(=O)c2c(nc3n2CCCC(=O)N3CCCCl)n(C)c1=O,GI50,NCI/ADR-RES,> 100 µM (inactive)
same,GI50,NCI-H460,> 100 µM (inactive)
same,GI50,MCF7,> 100 µM (inactive)
same,GI50,SK-OV-3,> 100 µM (inactive)
same,GI50,OVCAR-3,> 100 µM (inactive)
same,GI50,MDA-MB-231,> 100 µM (inactive)
same,GI50,COLO 205,> 100 µM (inactive)
same,GI50,HOP-92,> 100 µM (inactive)
same,GI50,RPMI-8226,> 100 µM (inactive)
same,GI50,HT-29,> 100 µM (inactive)
same,GI50,DU-145,> 100 µM (inactive)
same,GI50,SF-295,> 100 µM (inactive)
same,GI50,K562,> 100 µM (inactive)
same,GI50,ACHN,> 100 µM (inactive)
same,GI50,BT-549,> 100 µM (inactive)
same,GI50,UACC-257,> 100 µM (inactive)
same,GI50,TK-10,> 100 µM (inactive)
same,GI50,HCC 2998,> 100 µM (inactive)
same,GI50,SF-268,> 100 µM (inactive)
same,GI50,A549,> 100 µM (inactive)
same,GI50,MDA-MB-435,> 100 µM (inactive)
same,GI50,RXF 393,> 100 µM (inactive)
same,GI50,LOX IMVI,> 100 µM (inactive)
same,GI50,PC-3,> 100 µM (inactive)
same,GI50,SK-MEL-5,> 100 µM (inactive)
same,GI50,NCI-H226,> 100 µM (inactive)
same,GI50,OVCAR-5,> 100 µM (inactive)
same,GI50,HL-60,> 100 µM (inactive)
same,GI50,EKVX,> 100 µM (inactive)
same,GI50,786-0,> 100 µM (inactive)
same,GI50,MOLT-4,> 100 µM (inactive)
same,GI50,SNB-19,> 100 µM (inactive)
same,GI50,CCRF-CEM,> 100 µM (inactive)
same,GI50,NCI-H23,> 100 µM (inactive)
same,GI50,KM12,> 100 µM (inactive)
same,GI50,OVCAR-8,> 100 µM (inactive)
same,GI50,HCT-15,> 100 µM
same,GI50,M14,> 100 µM (inactive)
same,GI50,HCT-116,> 100 µM (inactive)
same,GI50,UACC-62,> 100 µM (inactive)
same,GI50,A498,> 100 µM (inactive)
same,GI50,SNB-75,> 100 µM (inactive)
same,GI50,SK-MEL-28,> 100 µM (inactive)
same,GI50,T47D,> 100 µM (inactive)
same,GI50,NCI-H522,> 100 µM (inactive)
same,GI50,SR,> 100 µM (inactive)
same,GI50,OVCAR-4,> 100 µM (inactive)
same,GI50,U-251,> 100 µM (inactive)
same,GI50,CAKI-1,> 100 µM (inactive)
same,GI50,SN12C,> 100 µM (inactive)
same,GI50,SK-MEL-2,> 100 µM (inactive)
same,GI50,HOP-62,> 100 µM (inactive)
same,GI50,MDA-N,> 100 µM (inactive)
same,GI50,IGROV-1,> 100 µM (inactive)
same,GI50,Hs-578T,> 100 µM (inactive)
same,GI50,SW-620,> 100 µM (inactive)
same,GI50,UO-31,> 100 µM (inactive)
CCN(CC)CCC(=O)c1ccc(Oc2ccc(Cl)cc2)cc1,GI50,NCI/ADR-RES,22.3 µM (inactive)
same,GI50,NCI-H460,14.7 µM (inactive)
same,GI50,MCF7,17.7 µM (inactive)
same,GI50,OVCAR-3,15.3 µM (inactive)
same,GI50,MDA-MB-231,14.5 µM (inactive)
same,GI50,COLO 205,24.3 µM (inactive)
same,GI50,HOP-92,16.2 µM (inactive)
same,GI50,RPMI-8226,3.82 µM (inactive)
same,GI50,Malme-3M,18 µM (inactive)
same,GI50,HT-29,21.2 µM (inactive)
same,GI50,DU-145,21.6 µM (inactive)
same,GI50,SF-295,18.4 µM (inactive)
same,GI50,K562,31.8 µM (inactive)
same,GI50,ACHN,12.9 µM (inactive)
same,GI50,BT-549,17 µM (inactive)
same,GI50,UACC-257,14 µM (inactive)
same,GI50,TK-10,18.3 µM (inactive)
same,GI50,HCC 2998,18.8 µM (inactive)
same,GI50,SF-268,16.7 µM (inactive)
same,GI50,A549,> 100 µM (inactive)
same,GI50,MDA-MB-435,18.1 µM (inactive)
same,GI50,RXF 393,22.3 µM (inactive)
same,GI50,LOX IMVI,14.6 µM (inactive)
same,GI50,PC-3,15.1 µM (inactive)
same,GI50,SK-MEL-5,17.5 µM (inactive)
same,GI50,OVCAR-5,16.2 µM (inactive)
same,GI50,HL-60,21.1 µM (inactive)
same,GI50,EKVX,19.5 µM (inactive)
same,GI50,786-0,14.9 µM (inactive)
same,GI50,MOLT-4,20.4 µM (inactive)
same,GI50,SNB-19,30 µM (inactive)
same,GI50,CCRF-CEM,19.5 µM (inactive)
same,GI50,NCI-H23,17.2 µM (inactive)
same,GI50,KM12,14.4 µM (inactive)
same,GI50,OVCAR-8,19.9 µM (inactive)
same,GI50,HCT-15,18.4 µM
same,GI50,M14,15.1 µM (inactive)
same,GI50,HCT-116,17.6 µM (inactive)
same,GI50,UACC-62,18.6 µM (inactive)
same,GI50,A498,16.1 µM (inactive)
same,GI50,SNB-75,12 µM (inactive)
same,GI50,SF-539,24.8 µM (inactive)
same,GI50,SK-MEL-28,17.7 µM (inactive)
same,GI50,T47D,20.7 µM (inactive)
same,GI50,NCI-H522,19 µM (inactive)
same,GI50,SR,20.1 µM (inactive)
same,GI50,OVCAR-4,15.8 µM (inactive)
same,GI50,U-251,16.9 µM (inactive)
same,GI50,CAKI-1,23.3 µM (inactive)
same,GI50,SN12C,17.4 µM (inactive)
same,GI50,SK-MEL-2,14.5 µM (inactive)
same,GI50,HOP-62,11.8 µM (inactive)
same,GI50,MDA-N,16.1 µM (inactive)
same,GI50,IGROV-1,20.4 µM (inactive)
same,GI50,Hs-578T,23.6 µM (inactive)
same,GI50,SW-620,22 µM (inactive)
same,GI50,UO-31,18 µM (inactive)
